Structures can show the parent of a compound that is named as a salt. Where two headings read alike, the source gives them in different places.
Columns and labels:
[1] = test system: poisoning with phalloidine; test: Antihepatotoxic activity, mouse poisoned with phalloidine (i.v. administration); assay type: in vivo; conditions: for Death Rate: 10 animals/group
From the text: (§1) In order to test its pharmacological activity, compound (Ia) has been administered intravenously and orally in liver poisoning tests, such as the praseodymium poisoning test on the rat and the phalloidine poisoning test on the mouse, both tests being widely described in the literature for use in studying the antihepatotoxic effect of silymarin and silybin (Vogel, in "Studies in Organic Chemistry, Vol. 11, Flavonoids and Bioflavonoids, page 461, Elsevier 1982).
Silybin dihemisuccinate, when tested at a dose equal to 1/13 of the LD50 i.v. in the mouse, protected only 60% of the mice from death by phalloidine (Table 4).

[2] = test system: liver poisoning by praseodymium; test: Antihepatotoxic activity, praseodymium test on the rat (oral administration); assay type: in vivo
From the text: as §1

[3] = test system: mice subjected to hypobaric anoxia; test: Hypobaric anoxia: protective effect on survival time of mice subjected to hypoxia (i.p.); assay type: in vivo, mouse; conditions: for ED50: Mus musculus, ip
From the text: Table 5 gives data showing the effect of compound Ia on the survival time of mice subjected to hypobaric anoxia. In this test (M. Nakanishi et al., Life Sciences, 13, 467, 1973), compound Ia was intraperitoneally injected half an hour before the anoxia.

[4] = test system: liver poisoning by praseodymium; test: Antihepatotoxic activity, praseodymium test on the rat (i.v. administration); assay type: in vivo
From the text: as §1
Silybin 11-phosphate was intravenously administered one hour before the praseodymium (10 mg/kg i.v.).

[5] = Anti-radical activity in vitro, free radical scavenging (DPPH method); conditions: for IC50: DPPH method
Description: The anti-radical activity of compound Ia was measured "in vitro" by testing the disappearance of the free 1,1-diphenyl-2-picrylhydrazyl (DPPH) radical (J. Pincemail et al., Stud. Org. Chem. 23, 423, 1985).

Acute toxicity, rat = conditions: in vivo, iv
Acute toxicity, mouse = conditions: in vivo, iv
Rat = conditions: i.v., A. Desplaces et al., 1975; cited from earlier work
Mouse = conditions: i.v., A. Desplaces et al., 1975; cited from earlier work
[6] = rat, simultaneously with praseodymium
[7] = corresponds to mg/kg silybin, read-out: Survival Time ED50, corresponding silybin dose
[8] = half an hour before the anoxia, read-out: Survival Time ED50 (confidence limits p = 0.95)
[9] = corresponds to μM silybin, read-out: IC50, corresponding silybin concentration
[10] = read-out: IC50 (confidence limits p = 0.95)

SMILES: COc1cc(C2Oc3cc(C4Oc5cc(O)cc(O)c5C(=O)C4O)ccc3OC2COP(=O)(O)O)ccc1O (stereo not drawn) [Silybin 11-phosphate (Ia), Silybin 11-phosphate]
- Activity compared with silybin dihemisuccinate in the phalloidine test ([1]; 63 and 126 mg/kg i.v.): markedly superior to silybin dihemisuccinate
- Percentage of deaths ([1]; i.v., 15.8 mg/kg): 0%
- Death Rate ([1]; i.v., 15.8 mg/kg, 1 h before phalloidine 3 mg/kg i.p.): 0
- Protection from death by phalloidine ([1]; i.v., dose equal to 1/15 of the LD50 i.v.): protected all the mice from death
- Antihepatotoxic activity compared with silybin [2]: greater than that of silybin
- ALAT, percentage variation relative to the praseodymium group ([2]; rat, 315 mg/kg): -78%
- ASAT, percentage variation relative to the praseodymium group ([2]; rat, 315 mg/kg): -75%
- Serum enzymes ALAT, m ± s.e. ([2]; rat, 315 mg/kg): 783.3 ± 304.6 U/L
- Serum enzymes ASAT, m ± s.e. ([2]; rat, 315 mg/kg, simultaneously with praseodymium): 931.7 ± 299.0 U/L
- Activity in counteracting the increase in the two serum transaminases compared with silybin [2, 6]: considerably more active than silybin alone
- Activity in counteracting the increase in the two serum transaminases compared with silybin dihemisuccinate [2, 6]: as active as silybin dihemisuccinate
- Activity in prolonging the survival time [3]: active in prolonging the survival time
- Activity in prolonging the survival time compared with succinylsilybin [3]: significantly more active than succinylsilybin
- ED50 [3, 7]: 36.3 mg/kg
- ED50 [3, 8]: 45.7 mg/kg
- Pharmacological activity compared with silybin dihemisuccinate ([4]; intravenous, liver poisoning tests (praseodymium rat, phalloidine mouse)): much higher pharmacological activity than silybin dihemisuccinate
- ALAT, percentage variation relative to the praseodymium group ([4]; rat, i.v., 6.32 mg/kg): -71%
- ASAT, percentage variation relative to the praseodymium group ([4]; rat, i.v., 6.32 mg/kg): -54%
- Liver Wt, m ± s.e. ([4]; rat, i.v., 6.32 mg/kg): 12.6 ± 0.5 g
- Liver Wt, percentage variation relative to the praseodymium group ([4]; rat, i.v., 6.32 mg/kg): -10%
- Liver triglycerides, m ± s.e. ([4]; rat, i.v., 6.32 mg/kg): 4792.4 ± 1068.8
- Liver triglycerides, percentage variation relative to the praseodymium group ([4]; rat, i.v., 6.32 mg/kg): -41%
- Serum enzymes ALAT, m ± s.e. ([4]; rat, i.v., 6.32 mg/kg): 495.0 ± 244.6 U/L
- Serum enzymes ASAT, m ± s.e. ([4]; rat, i.v., 6.32 mg/kg, 1 h before praseodymium 10 mg/kg i.v.): 877.0 ± 420.5 U/L
- ALAT, percentage variation relative to the praseodymium group ([4]; rat, i.v., 15.8 mg/kg): -97%
- ASAT, percentage variation relative to the praseodymium group ([4]; rat, i.v., 15.8 mg/kg): -95%
- Liver Wt, m ± s.e. ([4]; rat, i.v., 15.8 mg/kg): 8.7 ± 0.2 g
- Liver Wt, percentage variation relative to the praseodymium group ([4]; rat, i.v., 15.8 mg/kg): -30%
- Liver triglycerides, m ± s.e. ([4]; rat, i.v., 15.8 mg/kg): 672.7 ± 100.5
- Liver triglycerides, percentage variation relative to the praseodymium group ([4]; rat, i.v., 15.8 mg/kg): -92%
- Serum enzymes ALAT, m ± s.e. ([4]; rat, i.v., 15.8 mg/kg): 31.3 ± 3.2 U/L
- Serum enzymes ASAT, m ± s.e. ([4]; rat, i.v., 15.8 mg/kg): 90.9 ± 8.9 U/L
- Effect on praseodymium-induced increases ([4]; rat, i.v., dose equal to 1/26 of the LD50): inhibited the increase in activity of the two serum transaminases and the increase in the weight of the liver and the hepatic triglycerides
- Activity in the praseodymium test ([4]; rat, i.v., dose of 1/65 of the LD50): Activity was maintained
- IC50 [5, 9]: 85 µM
- IC50 [5, 10]: 107 µM
- Activity in destroying free radicals ([5]; in vitro, DPPH): significantly active in destroying free radicals
- Anti-radical activity relative to silybin or succinylsilybin ([5]; more active than either silybin or succinylsilybin): about 3.5 times

SMILES: COc1cc(C2Oc3cc(C4Oc5cc(O)cc(O)c5C(=O)C4O)ccc3OC2COP(=O)(O)O)ccc1O (stereo not drawn) [Silybin 11-phosphate (Ia, sodium salt), sodium salt of silybin 11-phosphate]
- LD50 (Acute toxicity, rat): 415 mg/kg
- LD50 (Acute toxicity, mouse): 235 mg/kg

SMILES: COc1cc(C2Oc3cc(C4Oc5cc(O)cc(O)c5C(=O)C4OC(=O)CCC(=O)O)ccc3OC2COC(=O)CCC(=O)O)ccc1O (stereo not drawn) [Silybin dihemisuccinate, silybin dihemisuccinate]
- Percentage of deaths ([1]; i.v., 75.0 mg/kg): 40%
- Death Rate ([1]; i.v., 75.0 mg/kg): 4
- Mice protected from death by phalloidine ([1]; i.v., dose equal to 1/13 of the LD50 i.v.): 60%
- ALAT, percentage variation relative to the praseodymium group ([2]; rat, 375 mg/kg): -75%
- ASAT, percentage variation relative to the praseodymium group ([2]; rat, 375 mg/kg): -70%
- Serum enzymes ALAT, m ± s.e. ([2]; rat, 375 mg/kg): 886.7 ± 395.1 U/L
- Serum enzymes ASAT, m ± s.e. ([2]; rat, 375 mg/kg): 1118.3 ± 512.0 U/L
- ED50 [3, 7]: 97.3 mg/kg
- ED50 [3, 8]: 108 mg/kg
- ALAT, percentage variation relative to the praseodymium group ([4]; rat, i.v., 7.5 mg/kg): -21%
- ASAT, percentage variation relative to the praseodymium group ([4]; rat, i.v., 7.5 mg/kg): -11%
- Liver Wt, m ± s.e. ([4]; rat, i.v., 7.5 mg/kg): 12.6 ± 0.5 g
- Liver Wt, percentage variation relative to the praseodymium group ([4]; rat, i.v., 7.5 mg/kg): -3%
- Liver triglycerides, m ± s.e. ([4]; rat, i.v., 7.5 mg/kg): 6692.8 ± 738.3
- Liver triglycerides, percentage variation relative to the praseodymium group ([4]; rat, i.v., 7.5 mg/kg): -18%
- Serum enzymes ALAT, m ± s.e. ([4]; rat, i.v., 7.5 mg/kg): 1366. ± 343.1 U/L
- Serum enzymes ASAT, m ± s.e. ([4]; rat, i.v., 7.5 mg/kg): 1672.0 ± 292.8 U/L
- ALAT, percentage variation relative to the praseodymium group ([4]; rat, i.v., 37.5 mg/kg): +64%
- ASAT, percentage variation relative to the praseodymium group ([4]; rat, i.v., 37.5 mg/kg): +38%
- Liver Wt, m ± s.e. ([4]; rat, i.v., 37.5 mg/kg): 12.6 ± 0.4 g
- Liver Wt, percentage variation relative to the praseodymium group ([4]; rat, i.v., 37.5 mg/kg): +1%
- Liver triglycerides, m ± s.e. ([4]; rat, i.v., 37.5 mg/kg): 7083.9 ± 747.5
- Liver triglycerides, percentage variation relative to the praseodymium group ([4]; rat, i.v., 37.5 mg/kg): -19%
- Serum enzymes ALAT, m ± s.e. ([4]; rat, i.v., 37.5 mg/kg): 1988.3 ± 465.3 U/L
- Serum enzymes ASAT, m ± s.e. ([4]; rat, i.v., 37.5 mg/kg): 2600.0 ± 570.9 U/L
- ALAT, percentage variation relative to the praseodymium group ([4]; rat, i.v., 75 mg/kg): -65%
- ASAT, percentage variation relative to the praseodymium group ([4]; rat, i.v., 75 mg/kg): -53%
- Liver Wt, m ± s.e. ([4]; rat, i.v., 75 mg/kg): 12.1 ± 0.5 g
- Liver Wt, percentage variation relative to the praseodymium group ([4]; rat, i.v., 75 mg/kg): -1%
- Liver triglycerides, m ± s.e. ([4]; rat, i.v., 75 mg/kg): 9221.0 ± 910.4
- Liver triglycerides, percentage variation relative to the praseodymium group ([4]; rat, i.v., 75 mg/kg): +11%
- Serum enzymes ALAT, m ± s.e. ([4]; rat, i.v., 75 mg/kg): 422.9 ± 85.6 U/L
- Serum enzymes ASAT, m ± s.e. ([4]; rat, i.v., 75 mg/kg): 887.0 ± 63.1 U/L
- Activity in the praseodymium test ([4]; rat, i.v., lower doses comparable with those of compound (Ia)): no activity
- Dose for preventing praseodymium poisoning ([4]; rat, i.v., LD50 reported in the literature): 1/12
- LD50 (Rat): 920(1) (906-940) mg/kg
- IC50 [5, 9]: 322 µM
- IC50 [5, 10]: 565 µM
- LD50 (Mouse): 970(1) (931-1010) mg/kg

SMILES: COc1cc(C2Oc3cc([C@H]4Oc5cc(O)cc(O)c5C(=O)[C@@H]4O)ccc3OC2CO)ccc1O (stereo partly drawn) [Silybin, silybin]
- ALAT, percentage variation relative to the praseodymium group ([2]; rat, 250 mg/kg): +1%
- ASAT, percentage variation relative to the praseodymium group ([2]; rat, 250 mg/kg): -2%
- Serum enzymes ALAT, m ± s.e. ([2]; rat, 250 mg/kg): 3620 ± 795.8 U/L
- Serum enzymes ASAT, m ± s.e. ([2]; rat, 250 mg/kg): 3680.2 ± 885.6 U/L
- IC50 [5, 10]: 327 µM
